Reference: US20230242496A1, “SOX11 INHIBITORS FOR TREATING MANTLE CELL LYMPHOMA” (Icahn School of Medicine At Mount Sinai, priority 2020, published 2023)

Experiments:
[1] = biological target: T1, (His)6-SOX11-DBD protein (Homo sapiens, UniProt P35716); experiment: Surface Plasmon Resonance (SPR) assay; format: binding; settings: immobilized recombinant (His)6-SOX11-DBD, 25° C., compounds 5-40 μM, mean of three experiments
T1 construct: Recombinant (His)6-SOX11-DBD protein was immobilized
T1 sequence (P35716 49-117 limits assumed): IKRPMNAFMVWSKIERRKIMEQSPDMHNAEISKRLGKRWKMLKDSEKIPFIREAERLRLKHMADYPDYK
Description: Surface Plasmon Resonance (SPR) Assay
Recombinant (His)6-SOX11-DBD protein was immobilized at a flow rate of 10 μl/min for 180 seconds to the right channel of a gold-coated SCR NiHC200M sensor chip (XanTec bioanalytics) placed in a Reichert 2SPR instrument (Reichert Technologies). The left channel, without immobilized protein, was used as a reference. […] Compounds flowed sequentially from the left to the right channel over the prepared sensor chip surface. 120 seconds association phase with each compound concentration was followed by 300 seconds dissociation phase with the assay buffer alone. The ka, kd, and KD values were determined from the sensograms for at least 3 concentrations of each compound by curve fitting the data using Reichert's TraceDrawer software. The mean KD value for each compound was calculated from three separate experiments.

[2] = tested on: Jeko-1 (SOX11+); experiment: Cell viability assay (CellTiter-Blue resazurin reduction); format: cell-based; settings: Homo sapiens, JeKo-1 cells; for IC50: 0-40 μM; for viability at 20 µM: 20 μM compound, normalized to 0.2% DMSO
Description: Cell viability was determined by a fluorometric resazurin reduction method (CellTiter-Blue; Promega, Madison, Wis.) following the manufacturer's instructions. […] Cells were incubated for 72 hours. After incubation, 20 μl CellTiter-Blue Cell was added to each well and incubated for another 2 hours. […] The number of viable cells in each treated well was calculated, based on the linear least squares regression of the standard curve (OD vs. cell concentration). The viability of cells treated with compounds was normalized to the viability of cells treated with 0.2% Dimethyl sulfoxide (DMSO). Cell counts were confirmed with Trypan Blue Exclusion Assay on the Countess automated cell counter (Invitrogen) according to the manufacturer's specifications. The average and mean standard deviation were calculated from three separate experiments. IC50 values were calculated using the GraphPad Prism (version 4.00) based on a sigmoidal dose-response equation.

Row | Structure (SMILES) | Kd [1] [µM] | IC50 ([2]; JeKo-1, 72 h) [µM] | viability at 20 µM ([2]; JeKo-1, 72 h) [%] | viability at 20 µM ([2]; 72 hours) [%] | IC50 ([2]; 72 hours) [µM]
1 | O=C(Nc1ccc(CNc2ccccc2)cc1)c1ccc2c(c1)CCCS2 | 13.5 |  | 51.9 |  | 
2 | O=C(Nc1ccc(S(=O)(=O)Nc2ccccc2)cc1)c1ccc2cccnc2c1 | 2.01 | > 20 | 94.2 |  | 
3 | O=C(Nc1cccc(CNc2ccccc2)c1)c1ccc2c(c1)CCCS2 | 7.34 |  | 85.3 |  | 
4 | CN(c1ccccc1)S(=O)(=O)c1cccc(NC(=O)c2ccc3snnc3c2)c1 | 8.33 | 10 | 10.6 |  | 
5 | c1ccc(COc2ccc(CNc3ccc4cnccc4c3)cc2)cc1 | 33.7 |  | 1.2 |  | 
6 | O=C(Nc1ccc(S(=O)(=O)N2CCCC2)c(Cl)c1)c1ccc2c(c1)CCCS2 | 3.86 |  | 1.26 |  | 
7 | O=C(Nc1ccc(S(=O)(=O)Nc2ccccc2)cc1)c1ccc2ccncc2c1 | 37.9 | 5 | 24.8 |  | 
8 | O=C(CCc1c[nH]cn1)Nc1cccc(C(=O)Nc2ccc(S(=O)(=O)Nc3ccccc3)cc2)c1 | 6.46 | > 20 | 90.7 |  | 
9 | CN1C(=O)COc2ccc(C(=O)Nc3ccc(S(=O)(=O)N4CCCCC4)cc3)cc21 | 5.35 | > 20 | 90.6 |  | 
10 | CC1Sc2ccc(C(=O)Nc3cccc(CNc4cccc(S(=O)(=O)F)c4)c3)cc2NC1=O (stereo not shown) | 1.9 |  |  | 44.3 | 19
11 | CCN(CC)S(=O)(=O)c1cccc(NC(=O)c2ccc3c(c2)NC(=O)C(C)S3)c1 (stereo not shown) | 31.2 | 8 | 0.44 |  | 
12 | O=C(Nc1cccc(S(=O)(=O)N2CCCCC2)c1)c1ccc2c(c1)CCCS2 | 3.01 |  | 54.2 |  | 
13 | O=C(Nc1ccc(S(=O)(=O)Nc2ccccc2)cc1)c1ccc2cnccc2c1 | 134 | 15 | 6.45 |  | 
14 | O=C(Nc1ccc2cccnc2c1)c1ccc(OCc2ccccc2)cc1 | 3.58 | 8 | 22.8 |  | 
15 | CC1Sc2ccc(C(=O)Nc3cccc(S(=O)(=O)N4CCNCC4)c3)cc2NC1=O (stereo not shown) | 131 | > 20 | 114 |  | 
16 | CC1Sc2ccc(C(=O)Nc3cccc(S(=O)(=O)NC4CCNCC4)c3)cc2NC1=O (stereo not shown) | 54.6 | > 20 | 96.6 |  | 
17 | CC1Sc2ccc(C(=O)Nc3cccc(OCc4ccccc4)c3)cc2NC1=O (stereo not shown) | 13.7 |  | 107 |  | 
18 | c1ccc(COc2cccc(CNc3ccc4cncnc4c3)c2)cc1 | 24.2 |  | 1.4 |  | 
19 | CC1Sc2ccc(C(=O)Nc3ccc(Cl)c(S(=O)(=O)N4CCCC4)c3)cc2NC1=O (stereo not shown) | 23.9 |  | 1.39 |  | 
20 | O=C(Nc1ccc(S(=O)(=O)Nc2ccccc2)cc1)c1ccc2cncnc2c1 | 226 | > 20 | 100 |  | 
21 | O=C(Nc1ccc(S(=O)(=O)N2CCCCC2)c(Cl)c1)c1ccc2c(c1)CCCS2 | 17.6 |  | 35.1 |  | 
22 | O=C(Nc1cccc(OCc2ccccc2)c1)c1ccc2snnc2c1 | 9.61 | > 20 | 98.1 |  | 
23 | CC1Sc2ccc(C(=O)Nc3cccc(S(=O)(=O)N4CCN(C(=O)OC(C)(C)C)CC4)c3)cc2NC1=O (stereo not shown) | 1.76 | 18 | 36.4 |  | 
24 | c1ccc(COc2cccc(CNc3ccc4cnccc4c3)c2)cc1 | 47.8 |  | 1.12 |  | 
25 | O=C(Nc1ccc(S(=O)(=O)Nc2ccccc2)cc1)c1ccc2ncccc2c1 | 70 | < 20 | 26 |  | 
26 | Cc1ccc(NC(=O)c2ccc3c(c2)N(C)C(=O)CS3)cc1S(=O)(=O)N1CCCCC1 | 8.89 |  | 3.42 |  | 
27 | CN(c1ccccc1)S(=O)(=O)c1ccc(NC(=O)c2ccc3nncn3c2)cc1 | 4.07 | > 20 | 126 |  | 
28 | CN1C(=O)CSc2ccc(C(=O)Nc3ccc(S(=O)(=O)N4CCCC4)c(Cl)c3)cc21 | 27.4 |  | 16 |  | 

Continued, in another order:

Row | Kd [1] [µM] | Structure (SMILES) | IC50 ([2]; JeKo-1, 72 h) [µM] | viability at 20 µM ([2]; JeKo-1, 72 h) [%] | viability at 20 µM ([2]; 72 hours) [%] | IC50 ([2]; 72 hours) [µM]
29 | 138 | CC1Sc2ccc(C(=O)Nc3ccc(S(=O)(=O)N4CCCC4)cc3)cc2NC1=O (stereo not shown) | 8.5 | 2.97 |  | 
30 | 30.9 | CC1Sc2ccc(C(=O)Nc3ccc(S(=O)(=O)Nc4ccncc4)cc3)cc2NC1=O (stereo not shown) | > 20 | 103 |  | 
31 | 31 | CC1Sc2ccc(C(=O)Nc3ccc(S(=O)(=O)Nc4ccccc4)cc3F)cc2NC1=O (stereo not shown) | > 20 | 90 |  | 
32 | 7.75 | CC1Sc2ccc(C(=O)N(c3ccccc3)S(=O)(=O)c3ccc(N)cc3)cc2NC1=O (stereo not shown) | > 20 | 91.2 |  | 
33 | 83.3 | CC1Sc2ccc(C(=O)Nc3ccc(S(N)(=O)=O)cc3)cc2NC1=O (stereo not shown) | > 20 | 101 |  | 
34 | 5.07 | CC1Sc2ccc(C(=O)Nc3cccc(S(=O)(=O)Nc4ccc(NC(=O)OC(C)(C)C)cc4)c3)cc2NC1=O (stereo not shown) | > 20 | 67.4 |  | 
35 | 32 | CC1Sc2ccc(C(=O)Nc3ccc(S(=O)(=O)Nc4ccc(O)cc4)cc3)cc2NC1=O (stereo not shown) | < 20 | 13.7 |  | 
36 | 18.6 | CC1Sc2ccc(C(=O)Nc3cccc(S(=O)(=O)Nc4ccccc4)c3)cc2NC1=O (stereo not shown) | 10 | 2.81 |  | 
37 | 7.23 | CC1Sc2ccc(C(=O)Nc3ccc(S(=O)(=O)Nc4cccnc4)cc3)cc2NC1=O (stereo not shown) | > 20 | 92 |  | 
38 | 6.63 | CC1Sc2ccc(C(=O)Nc3ccc(S(=O)(=O)Nc4ccccc4)s3)cc2NC1=O (stereo not shown) | > 20 | 57.4 |  | 
39 | 3.42 | O=C(Nc1ccc(S(=O)(=O)Nc2ccccc2)cc1)c1ccc2ccccc2c1 | > 20 | 96.3 |  | 
40 | 2.47 | Cc1cccc(NS(=O)(=O)c2cccc(NC(=O)c3ccc4c(c3)NC(=O)C(C)S4)c2)c1 (stereo not shown) | 10 | 3.73 |  | 
41 | 1.57 | CC1Sc2ccc(C(=O)Nc3ccc(S(=O)(=O)Nc4ccc(C(F)(F)F)cc4)cc3)cc2NC1=O (stereo not shown) | > 20 | 63.6 |  | 
42 | 2.12 | CC1Sc2ccc(C(=O)Nc3cccc(S(=O)(=O)Nc4ccc(C(F)(F)F)cc4)c3)cc2NC1=O (stereo not shown) | < 20 | 22.2 |  | 
43 | 230 | O=C(Nc1ccc(S(=O)(=O)Nc2ccccc2)cc1)c1ccc2nc[nH]c2c1 | > 20 | 93.6 |  | 
44 | 1.62 | O=C(Nc1ccc(S(=O)(=O)Nc2ccccc2)cc1)c1ccc2c(c1)CCCS2 | 12 | 1.95 |  | 
45 | 5.78 | CC1Sc2ccc(C(=O)Nc3ccc(S(=O)(=O)Nc4cccc(C(F)(F)F)c4)cc3)cc2NC1=O (stereo not shown) | 21 | 9.74 |  | 
46 | 9.79 | CC(C)NS(=O)(=O)c1ccc(NC(=O)c2ccc3c(c2)NC(=O)C(C)S3)cc1 (stereo not shown) | 8 | 20.3 |  | 
47 | 3.12 | CC1Sc2ccc(C(=O)Nc3ncc(S(=O)(=O)Nc4ccccc4)s3)cc2NC1=O (stereo not shown) | > 20 | 88 |  | 
48 | 2.5 | Cc1cc(NC(=O)c2ccc3c(c2)NC(=O)C(C)S3)ccc1S(=O)(=O)Nc1ccccc1 (stereo not shown) | 10 | 1.22 |  | 
49 | 1.47 | CC1Sc2ccc(C(=O)Nc3ccc(S(=O)(=O)N(C)c4ccccc4)cc3)cc2NC1=O (stereo not shown) | 9 | 18 |  | 
50 | 0.258 | CC1Sc2ccc(C(=O)Nc3ccc(CNc4ccccc4)cc3)cc2NC1=O (stereo not shown) |  | 108 |  | 
51 | 12.4 | Cc1ccc(NS(=O)(=O)c2ccc(NC(=O)c3ccc4c(c3)NC(=O)C(C)S4)cc2)cc1 (stereo not shown) | 10 | 0.51 |  | 
52 | 38.9 | CC1Sc2ccc(C(=O)Nc3ccc(S(=O)(=O)N(C)C(C)C)cc3)cc2NC1=O (stereo not shown) | 8 | 0.92 |  | 
53 | 3.62 | CC1Sc2ccc(C(=O)Nc3ccc(CN(C)c4ccccc4)cc3)cc2NC1=O (stereo not shown) |  | 84.9 |  | 
54 | 20.9 | O=C1Cc2ccc(C(=O)Nc3ccc(S(=O)(=O)Nc4ccccc4)cc3)cc2N1 | > 20 | 81.5 |  | 
55 | 1.43 | CCC1Sc2ccc(C(=O)Nc3ccc(S(=O)(=O)Nc4ccccc4)cc3)cc2NC1=O (stereo not shown) | 12 | 36.7 |  | 
56 | 18.9 | CC1Sc2ccc(C(=O)Nc3ccc(S(=O)(=O)NC4CC4)cc3)cc2NC1=O (stereo not shown) | 7 | 14.9 |  | 
57 | 7.13 | CC1Sc2ccc(C(=O)Nc3ccc(S(C)(=O)=O)cc3)cc2NC1=O (stereo not shown) | 15 | 30.6 |  | 
